{"source": "ChEMBL document CHEMBL4334494", "about": "“Recent advances in the targeting of human DNA ligase I as a potential new strategy for cancer treatment” (Eur J Med Chem, 2019)", "key": {"DNA ligase 1 [1]": {"molecular_target": "T1, DNA ligase 1 (Homo sapiens, UniProt P18858)", "T1 sequence (P18858 whole entry)": "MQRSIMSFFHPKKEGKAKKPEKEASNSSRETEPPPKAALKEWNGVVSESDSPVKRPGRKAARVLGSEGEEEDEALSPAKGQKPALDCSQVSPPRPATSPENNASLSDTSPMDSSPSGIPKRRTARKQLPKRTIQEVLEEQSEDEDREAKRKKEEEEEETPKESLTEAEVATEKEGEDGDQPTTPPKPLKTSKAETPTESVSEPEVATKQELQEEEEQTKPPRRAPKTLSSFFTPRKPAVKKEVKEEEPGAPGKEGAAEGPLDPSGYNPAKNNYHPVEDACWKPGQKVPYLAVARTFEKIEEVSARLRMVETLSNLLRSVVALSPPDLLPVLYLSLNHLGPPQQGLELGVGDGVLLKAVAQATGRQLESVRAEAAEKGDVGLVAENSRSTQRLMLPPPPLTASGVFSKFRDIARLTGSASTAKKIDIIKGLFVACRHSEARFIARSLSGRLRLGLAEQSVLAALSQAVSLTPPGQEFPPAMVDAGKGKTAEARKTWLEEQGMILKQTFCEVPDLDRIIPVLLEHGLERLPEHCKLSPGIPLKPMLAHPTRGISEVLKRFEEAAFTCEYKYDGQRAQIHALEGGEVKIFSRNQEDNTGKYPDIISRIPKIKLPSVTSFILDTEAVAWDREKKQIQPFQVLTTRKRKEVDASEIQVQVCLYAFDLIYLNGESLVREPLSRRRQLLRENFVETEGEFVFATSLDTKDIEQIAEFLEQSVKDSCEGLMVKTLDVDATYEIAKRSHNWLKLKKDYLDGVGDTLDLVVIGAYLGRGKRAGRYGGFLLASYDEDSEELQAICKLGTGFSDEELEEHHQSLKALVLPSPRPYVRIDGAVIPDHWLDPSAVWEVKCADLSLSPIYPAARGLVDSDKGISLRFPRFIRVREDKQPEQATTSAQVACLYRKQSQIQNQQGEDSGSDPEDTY", "experiment": "Inhibition of human DNA ligase 1 at 25 uM using nicked DNA as substrate after 30 mins relative to control"}, "DNA ligase 1 [2]": {"molecular_target": "T1, DNA ligase 1", "experiment": "Inhibition of human DNA ligase 1 expressed in Escherichia coli BL21DE3RP cells at 50 uM using 52-mer DNA/25-mer DNA/27-mer DNA as substrate after 30 mins by Cyanin3 dye-based fluorescence assay relative to control"}, "HCT-116": {"system": "HCT-116", "experiment": "Antiproliferative activity against human HCT116 cells at 100 uM relative to control", "format": "functional"}, "DLD-1": {"system": "DLD-1", "experiment": "Antiproliferative activity against human DLD1 cells at 100 uM relative to control", "format": "functional"}, "MDA-MB-231": {"system": "MDA-MB-231", "experiment": "Antiproliferative activity against human MDA-MB-231 cells at 100 uM relative to control", "format": "functional"}, "A549": {"system": "A549", "experiment": "Antiproliferative activity against human A549 cells at 100 uM relative to control", "format": "functional"}, "HEK293": {"system": "HEK293", "experiment": "Cytotoxicity against HEK293 cells at 100 uM relative to control", "format": "cell-based", "conditions": "human, hek293, 100 µM"}, "HepG2": {"system": "HepG2", "experiment": "Antiproliferative activity against human HepG2 cells at 100 uM relative to control", "format": "functional"}}, "data": [{"compound": "COc1cccc2c1ccc1c(/C=C/c3ccc([N+](=O)[O-])cc3)cc(=O)oc12", "values": [{"measurement": "inhibition", "setting": "DNA ligase 1 [1]", "result": "> 90", "unit": "%"}]}, {"compound": "CN(C)c1ccc(/C=C/c2cc(=O)oc3c2ccc2ccccc23)cc1", "values": [{"measurement": "inhibition", "setting": "DNA ligase 1 [1]", "result": "< 50", "unit": "%"}]}, {"compound": "CC(C)c1ccc(/C=C2\\CN(C(=S)NCc3ccccc3)C/C(=C\\c3ccc(C(C)C)cc3)C2=O)cc1", "values": [{"measurement": "inhibition", "setting": "DNA ligase 1 [2]", "result": "> 75", "unit": "%"}]}, {"compound": "Cc1ccccc1/C=C1\\CN(C(=S)NCCc2ccccc2)C/C(=C\\c2ccccc2C)C1=O", "values": [{"measurement": "inhibition", "setting": "DNA ligase 1 [2]", "result": "> 75", "unit": "%"}]}, {"compound": "O=C1/C(=C/c2ccccc2F)CN(C(=S)NC(=O)c2ccccc2)C/C1=C\\c1ccccc1F", "values": [{"measurement": "inhibition", "setting": "DNA ligase 1 [2]", "result": "> 75", "unit": "%"}]}, {"compound": "COc1ccc(/C=C/c2cc(=O)oc3c2ccc2c(OC)cccc23)c(OC)c1", "values": [{"measurement": "inhibition", "setting": "DNA ligase 1 [1]", "result": "< 50", "unit": "%"}]}, {"compound": "COc1cccc2c1ccc1c(/C=C/c3ccc(C#N)cc3)cc(=O)oc12", "values": [{"measurement": "inhibition", "setting": "DNA ligase 1 [1]", "result": "> 90", "unit": "%"}]}, {"compound": "COc1ccc(/C=C/c2cc(=O)oc3c2ccc2ccccc23)cc1", "values": [{"measurement": "inhibition", "setting": "DNA ligase 1 [1]", "result": "< 50", "unit": "%"}]}, {"compound": "CCOC(=O)C1=C(C)NC(=S)NC1c1cc(/C=N/NC(=O)Nc2ccc(Cl)cc2)c(O)c(C(C)(C)C)c1", "note": "(configuration not stated)", "values": [{"measurement": "inhibition at 100 µM", "setting": "HCT-116", "result": "< 80", "unit": "%"}, {"measurement": "inhibition at 100 µM", "setting": "DLD-1", "result": "< 80", "unit": "%"}, {"measurement": "inhibition at 100 µM", "setting": "MDA-MB-231", "result": "< 80", "unit": "%"}, {"measurement": "inhibition at 100 µM", "setting": "A549", "result": "< 80", "unit": "%"}, {"measurement": "Activity", "setting": "HEK293", "result": "< 80", "unit": "%"}, {"measurement": "inhibition at 100 µM", "setting": "HepG2", "result": "< 80", "unit": "%"}]}, {"compound": "O=C1/C(=C/c2ccccc2F)CN(c2nc(-c3ccccc3)cs2)C/C1=C\\c1ccccc1F", "values": [{"measurement": "inhibition", "setting": "DNA ligase 1 [2]", "result": "> 75", "unit": "%"}]}, {"compound": "Cc1ccc(/C=C2\\CN(C(=S)NCc3ccccc3)C/C(=C\\c3ccc(C)cc3)C2=O)cc1", "values": [{"measurement": "inhibition", "setting": "DNA ligase 1 [2]", "result": "> 75", "unit": "%"}]}, {"compound": "O=C1/C(=C/c2ccc(F)cc2)CN(C(=S)NCc2ccccc2)C/C1=C\\c1ccc(F)cc1", "values": [{"measurement": "inhibition", "setting": "DNA ligase 1 [2]", "result": "> 75", "unit": "%"}]}, {"compound": "CCOC(=O)C1=C(C)NC(=S)NC1c1cc(/C=N/NC(=S)Nc2ccc(C)cc2)c(O)c(C(C)(C)C)c1", "note": "(configuration not stated)", "values": [{"measurement": "inhibition at 100 µM", "setting": "HCT-116", "result": "< 80", "unit": "%"}, {"measurement": "inhibition at 100 µM", "setting": "DLD-1", "result": "< 80", "unit": "%"}, {"measurement": "inhibition at 100 µM", "setting": "MDA-MB-231", "result": "< 80", "unit": "%"}, {"measurement": "inhibition at 100 µM", "setting": "A549", "result": "< 80", "unit": "%"}, {"measurement": "Activity", "setting": "HEK293", "result": "< 80", "unit": "%"}, {"measurement": "inhibition at 100 µM", "setting": "HepG2", "result": "< 80", "unit": "%"}]}, {"compound": "COc1ccc(OC)c(/C=C/c2cc(=O)oc3c2ccc2c(C)cccc23)c1", "values": [{"measurement": "inhibition", "setting": "DNA ligase 1 [1]", "result": "< 50", "unit": "%"}]}, {"compound": "Cc1ccc(/C=C2\\CN(C(=S)Nc3ccccc3)C/C(=C\\c3ccc(C)cc3)C2=O)cc1", "values": [{"measurement": "inhibition", "setting": "DNA ligase 1 [2]", "result": "> 75", "unit": "%"}]}, {"compound": "COc1cc(/C=C/c2cc(=O)oc3c2ccc2c(C)cccc23)c(OC)c(OC)c1OC", "values": [{"measurement": "inhibition", "setting": "DNA ligase 1 [1]", "result": "< 50", "unit": "%"}]}, {"compound": "COc1ccc(/C=C2\\CN(C(=S)NCc3ccccc3)C/C(=C\\c3ccc(OC)cc3)C2=O)cc1", "values": [{"measurement": "inhibition", "setting": "DNA ligase 1 [2]", "result": "> 75", "unit": "%"}]}, {"compound": "O=C1/C(=C/c2ccc(F)cc2)CN(c2nc(-c3ccccc3)cs2)C/C1=C\\c1ccc(F)cc1", "values": [{"measurement": "inhibition", "setting": "DNA ligase 1 [2]", "result": "> 75", "unit": "%"}]}, {"compound": "Cc1ccccc1/C=C1\\CN(c2nc(-c3ccccc3)cs2)C/C(=C\\c2ccccc2C)C1=O", "values": [{"measurement": "inhibition", "setting": "DNA ligase 1 [2]", "result": "> 75", "unit": "%"}]}, {"compound": "COc1ccc(OC)c(/C=C/c2cc(=O)oc3c2ccc2c(OC)cccc23)c1", "values": [{"measurement": "inhibition", "setting": "DNA ligase 1 [1]", "result": "< 50", "unit": "%"}]}, {"compound": "CCOC(=O)C1=C(C)NC(=O)NC1c1cc(C)c(O)c(/C=N/NC(=S)NC)c1", "note": "(configuration not stated)", "values": [{"measurement": "inhibition at 100 µM", "setting": "HCT-116", "result": "> 80", "unit": "%"}, {"measurement": "inhibition at 100 µM", "setting": "DLD-1", "result": "> 80", "unit": "%"}, {"measurement": "inhibition at 100 µM", "setting": "MDA-MB-231", "result": "> 80", "unit": "%"}, {"measurement": "inhibition at 100 µM", "setting": "A549", "result": "> 80", "unit": "%"}, {"measurement": "Activity", "setting": "HEK293", "result": "> 80", "unit": "%"}, {"measurement": "inhibition at 100 µM", "setting": "HepG2", "result": "> 80", "unit": "%"}]}, {"compound": "COc1ccc(/C=C2\\CN(C(=S)NCCc3ccccc3)C/C(=C\\c3ccc(OC)cc3)C2=O)cc1", "values": [{"measurement": "inhibition", "setting": "DNA ligase 1 [2]", "result": "> 75", "unit": "%"}]}, {"compound": "O=c1cc(/C=C/c2ccccc2)c2ccc3ccccc3c2o1", "values": [{"measurement": "inhibition", "setting": "DNA ligase 1 [1]", "result": "< 50", "unit": "%"}]}, {"compound": "COc1cccc(/C=C/c2cc(=O)oc3c2ccc2ccccc23)c1", "values": [{"measurement": "inhibition", "setting": "DNA ligase 1 [1]", "result": "< 50", "unit": "%"}]}, {"compound": "CCOC(=O)C1=C(C)NC(=O)NC1c1cc(/C=N/NC(=S)Nc2ccc(Cl)cc2)c(O)c(C(C)(C)C)c1", "note": "(configuration not stated)", "values": [{"measurement": "inhibition at 100 µM", "setting": "HCT-116", "result": "> 80", "unit": "%"}, {"measurement": "inhibition at 100 µM", "setting": "DLD-1", "result": "> 80", "unit": "%"}, {"measurement": "inhibition at 100 µM", "setting": "MDA-MB-231", "result": "> 80", "unit": "%"}, {"measurement": "inhibition at 100 µM", "setting": "A549", "result": "> 80", "unit": "%"}, {"measurement": "Activity", "setting": "HEK293", "result": "> 80", "unit": "%"}, {"measurement": "inhibition at 100 µM", "setting": "HepG2", "result": "> 80", "unit": "%"}]}, {"compound": "CCOC(=O)C1=C(C)NC(=O)NC1c1cc(/C=N/NC(N)=O)c(O)c(C(C)(C)C)c1", "note": "(configuration not stated)", "values": [{"measurement": "inhibition at 100 µM", "setting": "HCT-116", "result": "< 80", "unit": "%"}, {"measurement": "inhibition at 100 µM", "setting": "DLD-1", "result": "< 80", "unit": "%"}, {"measurement": "inhibition at 100 µM", "setting": "MDA-MB-231", "result": "< 80", "unit": "%"}, {"measurement": "inhibition at 100 µM", "setting": "A549", "result": "< 80", "unit": "%"}, {"measurement": "Activity", "setting": "HEK293", "result": "< 80", "unit": "%"}, {"measurement": "inhibition at 100 µM", "setting": "HepG2", "result": "< 80", "unit": "%"}]}, {"compound": "COc1cc(/C=C/c2cc(=O)oc3c2ccc2c(OC)cccc23)cc(OC)c1OC", "values": [{"measurement": "inhibition", "setting": "DNA ligase 1 [1]", "result": "< 50", "unit": "%"}]}, {"compound": "COc1cccc2c1ccc1c(/C=C/c3ccccc3)cc(=O)oc12", "values": [{"measurement": "inhibition", "setting": "DNA ligase 1 [1]", "result": "> 50", "unit": "%"}]}, {"compound": "COc1ccc(/C=C/c2cc(=O)oc3c2ccc2ccccc23)cc1OC", "values": [{"measurement": "inhibition", "setting": "DNA ligase 1 [1]", "result": "< 50", "unit": "%"}]}, {"compound": "COc1ccc(/C=C/c2cc(=O)oc3c2ccc2c(C)cccc23)cc1OC", "values": [{"measurement": "inhibition", "setting": "DNA ligase 1 [1]", "result": "< 50", "unit": "%"}]}, {"compound": "Cc1cccc2c1ccc1c(/C=C/c3ccc([N+](=O)[O-])cc3)cc(=O)oc12", "values": [{"measurement": "inhibition", "setting": "DNA ligase 1 [1]", "result": "> 90", "unit": "%"}]}, {"compound": "CCOC(=O)C1=C(C)NC(=O)NC1c1cc(C)c(O)c(/C=N/NC(N)=O)c1", "note": "(configuration not stated)", "values": [{"measurement": "inhibition at 100 µM", "setting": "HCT-116", "result": "< 80", "unit": "%"}, {"measurement": "inhibition at 100 µM", "setting": "DLD-1", "result": "< 80", "unit": "%"}, {"measurement": "inhibition at 100 µM", "setting": "MDA-MB-231", "result": "< 80", "unit": "%"}, {"measurement": "inhibition at 100 µM", "setting": "A549", "result": "< 80", "unit": "%"}, {"measurement": "Activity", "setting": "HEK293", "result": "< 80", "unit": "%"}, {"measurement": "inhibition at 100 µM", "setting": "HepG2", "result": "< 80", "unit": "%"}]}]}
